Laboratory results published in US8188222B2, “High molecular weight derivative of nucleic acid antimetabolite” (priority 2006, dated 2012).
Counter-ions that a name gives are not always drawn.

Legend:
[1] = test system: mouse colon cancer, Colon26; experiment: Antitumor effect against tumor-bearing mouse (2); type: in vivo; conditions: once intravenously, dose 160 in terms of gemcitabine hydrochloride, average ± SD
Text: A tumor mass of mouse colon cancer, Colon26, which had been subcutaneously subcultured in a mouse was cut into a block having an edge of about 2 mm at each side, and was transplanted under the skin of a mouse using a trocar. On the 7th day after tumor transplantation, the compound of Example 11, the compound of Example 14 and the compound of Example 17, dissolved in a 5% glucose injection solution and gemcitabine hydrochloride as a control drug dissolved in physiological saline were respectively administered once intravenously at the doses indicated in Table 3. The tumor volumes on the day of initiation of administration, and on the 7th day and 26th day after the initiation of administration were calculated by the above-described equation, and the relative tumor volumes on the day of initiation of administration and on the 7th day and 26th day after the initiation of administration were determined.

[2] = test system: mouse colon cancer, Colon26; experiment: Antitumor effect against tumor-bearing mouse (1); type: in vivo; conditions: 8th day after initiation of administration, once intravenously, volume on day of administration = 1.0, average ± SD
Text: Tumor of mouse colon cancer, Colon26, maintained by subcutaneous subculture in mice, was minced into about 2-mm square blocks, and the blocks were transplanted subcutaneously on the dorsal part of a mouse using a trocar. On the 7th day after tumor transplantation, the compound of Example 5 dissolved in a 5% glucose injection solution and gemcitabine hydrochloride as a control drug dissolved in physiological saline were respectively administered once intravenously at the doses indicated in Table 2. The tumor volumes on the day of initiation of administration and on the 8th day after the initiation of administration were calculated by the following equation, and the relative tumor volumes on the day of initiation of administration and on the 8th day after the initiation of administration were determined.

Nc1ccn([C@@H]2O[C@H](CO)[C@@H](O)C2(F)F)c(=O)n1 [Control drug, gemcitabine hydrochloride]
Relative tumor volume * ([1]; 7th day after initiation of administration): 1.5 ± 1.5 | Relative tumor volume ** ([1]; 26th day after initiation of administration): 25.8 ± 36.0 | Relative tumor volume ([2]; dose 40 mg/kg in terms of gemcitabine hydrochloride): 5.3 ± 1.1 | Relative tumor volume ([2]; dose 200 mg/kg in terms of gemcitabine hydrochloride): 4.8 ± 1.7
